This passage reports IC50 and viability, T/C results from PubChem BioAssay AID1963870 (Molecular Pharmacology Branch, DTP, NCI, 2024).

The test system of the experiment is 292921-168-R-J2-PDC KRAS tumor spheroid viability. In words: Anticancer human tumor 292921-168-R-J2-PDC patient-derived pancreatic carcinoma cell line growth inhibition [KRAS2]. To be noted: spheroids with HUVEC and MSC; for viability, T/C: stronger effect = lower value. The gist of the method:
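KRAS-mutant tumor cells were grown as spheroids with HUVEC endothelial cells and human MSCs as stroma. Targeted agents were tested alone and with KRAS pathway inhibitors. Doses started at or near clinical Cmax, or 10 microM, descending half-log.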

For orientation: IC50 means the concentration that inhibits the measured activity by half. In general, viability, T/C refers to the result in the treated group divided by that in the control group, in per cent.
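Also: drug exposure lasted seven days after spheroids formed for three days.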
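For viability, T/C in this document: percent of DMSO vehicle control viability which is 100%.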

For the compound `CCNC(=O)CC1N=C(c2ccc(Cl)cc2)c2cc(OC)ccc2-n2c(C)nnc21` (centres undefined) + C=CC(=O)N1CCN(c2nc(OCC3CCCN3C)nc3c2CCN(c2cccc4cccc(C)c24)C3)CC1CC#N, the IC50 reads like this: (curve of first compound, second compound 0.0316 µM) above 10000 nM; (curve of first compound, second compound 0.1 µM) 1230 nM; (curve of first compound, second compound 0.316 µM) 644 nM; (curve of first compound, second compound 1 µM) below 31.6 nM; (curve of first compound, second compound 3.16 µM) below 31.6 nM. Also, the viability, T/C is, setting by setting: (second compound 0.0316 µM, first compound 0.0316 µM) 104%; (second compound 0.0316 µM, first compound 0.1 µM) 99.5%; (second compound 0.0316 µM, first compound 0.316 µM) 69.9%; (second compound 0.0316 µM, first compound 1 µM) 63.6%; (second compound 0.0316 µM, first compound 3.16 µM) 53.9%; (second compound 0.0316 µM, first compound 10 µM) 49.2%. The viability, T/C runs as follows: (second compound 0.1 µM, first compound 0.0316 µM) 94%; (second compound 0.1 µM, first compound 0.1 µM) 90.2%; (second compound 0.1 µM, first compound 0.316 µM) 59.1%; (second compound 0.1 µM, first compound 1 µM) 53.7%; (second compound 0.1 µM, first compound 3.16 µM) 48%; (second compound 0.1 µM, first compound 10 µM) 34.3%. The viability, T/C runs as follows: (second compound 0.316 µM, first compound 0.0316 µM) 106%; (second compound 0.316 µM, first compound 0.1 µM) 92.2%; (second compound 0.316 µM, first compound 0.316 µM) 59.2%; (second compound 0.316 µM, first compound 1 µM) 45.1%; (second compound 0.316 µM, first compound 3.16 µM) 34.2%; (second compound 0.316 µM, first compound 10 µM) 29.2%. Moreover, the viability, T/C by setting is: (second compound 1 µM, first compound 0.0316 µM) 42.4%; (second compound 1 µM, first compound 0.1 µM) 33%; (second compound 1 µM, first compound 0.316 µM) 26.1%; (second compound 1 µM, first compound 1 µM) 18.4%; (second compound 1 µM, first compound 3.16 µM) 13.7%; (second compound 1 µM, first compound 10 µM) 8.19%. Also, the viability, T/C runs as follows: (second compound 3.16 µM, first compound 0.0316 µM) 0.21%; (second compound 3.16 µM, first compound 0.1 µM) 0.11%; (second compound 3.16 µM, first compound 0.316 µM) 0.1%; (second compound 3.16 µM, first compound 1 µM) 0.1%; (second compound 3.16 µM, first compound 3.16 µM) 0.1%; (second compound 3.16 µM, first compound 10 µM) 0.26%.

With `Cn1nccc1Nc1nccc(-c2cc3c(s2)C(C)(C)N(CCN2CCOCC2)C3=O)n1`, the viability, T/C was 80.7% [middle of 5 runs] (compound 0.0316 µM); 45.7% [middle of 5 runs] (compound 0.1 µM); 21.1% [middle of 5 runs] (compound 0.316 µM); 13.4% [middle of 4 runs] (compound 1 µM); 11.2% [middle of 4 runs] (compound 3.16 µM); 11.7% [middle of 5 runs] (compound 10 µM). Further, the IC50 (curve of compound) is 86 nM [middle of 5 runs].

In the case of `Cn1ncnc1[C@H]1c2n[nH]c(=O)c3cc(F)cc(c23)N[C@@H]1c1ccc(F)cc1`, the viability, T/C is, setting by setting: (compound 0.000316 µM) 99.3% [middle of 5 runs]; (compound 0.001 µM) 99.4% [middle of 5 runs]; (compound 0.00316 µM) 93.5% [middle of 5 runs]; (compound 0.01 µM) 89.9% [middle of 5 runs]; (compound 0.0316 µM) 84.1% [middle of 5 runs]; (compound 0.1 µM) 74.5% [middle of 5 runs]. Under “curve of compound”, the half-inhibitory concentration (IC50) is above 100 nM.
